US12157740B2, “Triazolopyridines and triazolopyrimidines that lower stress-induced p-tau” (NantNeuro, LLC, priority 2015, dated 2024)

Experiments:
CRFR2 = molecular target: T1, CRFR2 (Homo sapiens, UniProt Q13324); test: binding to CRFR2 (Ki)
T1 sequence (Q13324 1-411): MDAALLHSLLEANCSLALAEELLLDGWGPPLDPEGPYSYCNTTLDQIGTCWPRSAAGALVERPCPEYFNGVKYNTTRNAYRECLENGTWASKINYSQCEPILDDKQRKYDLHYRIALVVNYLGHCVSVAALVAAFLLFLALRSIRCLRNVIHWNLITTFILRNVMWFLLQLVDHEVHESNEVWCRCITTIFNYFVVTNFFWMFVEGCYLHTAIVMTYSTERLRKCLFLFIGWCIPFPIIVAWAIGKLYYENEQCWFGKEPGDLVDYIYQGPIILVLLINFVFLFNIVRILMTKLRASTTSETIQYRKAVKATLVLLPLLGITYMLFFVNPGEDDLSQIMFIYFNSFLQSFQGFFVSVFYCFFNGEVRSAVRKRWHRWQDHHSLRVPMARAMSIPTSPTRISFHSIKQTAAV

J20 mice [1] = test: J17 pilot study in J20 mice (oral, 28 days); type: in vivo, mouse; conditions: oral 28 days
Protocol: (§1) Animal experiments were performed using J20 mice. The J20 mouse is a model of for Alzheimer's disease. This model overexpresses human APP with two mutations linked to familial Alzheimer's disease (the APP KM670/671NL (Swedish) and 5APP V717F (Indiana) mutations).
In a J17 pilot study (#1 pilot study) male and female J20 mice were housed singly and treated with J17 at 10 rnkd by oral delivery for 28 days.

[2] = system: tau and phospho-tau in SHSY-5Y cells; test: CRF-induced tau, p-tau and sAPPα changes in SHSY-5Y cells; type: cell-based; conditions: for p-tau/tau ratio: FIG. 32C
J20 mice [3] = test: J03 pilot study #1 in J20 mice (SQ, 12 days); type: in vivo, mouse
Protocol: as §1
In pilot study #1, J20 mice housed singly were treated by SQ injection of J03 in PEG/b-MCD at 10 mkd for 12 days. NOR analysis of object memory (N=5/group) was performed. The results are illustrated in FIGS. 10D-10I. […] There was no difference in Aβ1-40 (FIG. 10E), but a decrease in Aβ1-42 (FIG. 10F).

tau and p-tau = test: effect of J03 and J19 on tau and p-tau (FIG. 39E-39F, system not given); conditions: FIG. 39E
From the text: JI9 decreased tau and both J03 and JI9 decreased p-tau (FIG. 39E). Therefore, while the p-tau/tau ratio looks unchanged for J19 FIG. 39F. This is due to the tau decrease and not due to a lack of effect.

[4] = in vivo pharmacokinetics, plasma and brain levels; set-up: species or system mouse
p-tau = test: cortisol-induced p-tau increase in vitro (screen of clinical library of CRF-1 inhibitors); type: cell-based
From the text: To identify therapeutic candidates, a clinical library of CRF-1 inhibitors to was screened to determine their effects on cortisol-induced p-tau increases. […] J03 was shown specifically to inhibit stress-induced p-tau increases by cortisol in vitro.

[5] = system: tau and p-tau in SH-Sy5Y cells; test: screens for tau and p-tau levels in SH-Sy5Y cells (no CRF stated); type: cell-based; conditions: screen of FIG. 28B
Protocol: As described below, in vitro studies were performed using SHSY-5Y cells. These cells are a useful neurological model that differentiate into cells with morphological and biochemical characteristics of mature neurons including mature isoforms of tau. […]

J20 mice [6] = test: J03 pilot study #2 in J20 mice (oral, longer duration); type: in vivo, mouse
Protocol: as §1
Based on these promising results, the study was repeated (pilot study #2) with oral delivery and a longer duration.

[7] = CRF-1 at 100 nM for 3 days, compound at 20 nM, FIG. 29A
[8] = oral delivery, longer duration, J20 mice

**Q.** Which results are given for `CCC(COC)n1nnc2c(Nc3ccc(OC)cc3C)nc(C)cc21` (stereo not drawn) [J03, N-(4-Methoxy-2-methylphenyl)-1-[1-(methoxymethyl)propyl]-6-methyl-1H-1,2,3-triazolo[4,5-c]pyridine-4-amine]?
**A.** Ki (CRFR2): > 10 µM; activity (J20 mice [1]; male and female J20 mice housed singly, not significant, FIG. 24A): lowered; novel object preference, overall (J20 mice [1]; all mice, FIG. 24B): increased; sAPPα (J20 mice [1]; both genders, FIG. 25A): increase; ratio sAPPα/sAPPβ (J20 mice [1]; males, FIG. 25C): slight increase; p-tau [2, 7]: decreased; total tau [2, 7]: decreased; tau after exposure to CRF ([2]; FIG. 21D): decreased; p-tau after exposure to CRF ([2]; FIG. 21E): decreased; tau increases induced by CRF ([2]; SHSY-5Y cells cultured without serum, CRF at increasing concentrations, FIG. 10A): reduces; phospho-tau (p-tau) increases induced by CRF ([2]; SHSY-5Y cells cultured without serum, CRF at increasing concentrations, FIG. 10B): reduces; sAPPα increase, significance ([2]; at 100 nM CRF, FIG. 32D): reached significance; p-tau/tau ratio ([2]; at 50 and 100 nM CRF): highly significantly decreased; tau ([2]; in the absence of CRF and in the presence of 100 nM CRF, FIG. 32A): significantly decreased; p-tau/tau ratio ([2]; in the absence of CRF): decreased; p-tau ([2]; in the presence and absence of CRF, FIG. 32B): significantly reduced; sAPPα after exposure to CRF ([2]; versus control, FIG. 21C): lower; sAPPα ([2]; with and without CRF, FIG. 32D): trend for sAPPα to be higher; NOR analysis of object memory (behavior) (J20 mice [3]; J20 mice housed singly, SQ 10 mkd in PEG/b-MCD for 12 days, FIG. 10D): slight improvement; P-tau (J20 mice [3]; SQ 10 mkd, 12 days): significantly lower; Aβ1-40 (J20 mice [3]; SQ 10 mkd, 12 days, FIG. 10E): no difference; Aβ1-42 (J20 mice [3]; SQ 10 mkd, 12 days, FIG. 10F): decrease; Aβ1-40/1-42 ratio (J20 mice [3]; SQ 10 mkd, 12 days, FIG. 10G): significantly increased; SAPP (J20 mice [3]; SQ 10 mkd, 12 days, FIG. 10H): very slightly increased; sAPP/Aβ1-42 ratio (J20 mice [3]; SQ 10 mkd, 12 days, FIG. 10I): very slightly increased; ratio (p-tau and tau) (J20 mice [3]; SQ 10 mkd, 12 days, great individual variation): slightly higher; total tau (J20 mice [3]; SQ 10 mkd, 12 days, largely due to one mouse, FIG. 11A): decreased; p-tau (tau and p-tau): decreased; brain levels ([4]; 10 mk subcutaneous (SQ) single injection, J20 mice, FIG. 10C): low; brain levels at the peak after oral delivery, compared with SQ ([4]; oral delivery by feeding (not gavage) at 10 mg/kg): slightly higher; stress-induced p-tau increases by cortisol (p-tau): inhibit; p-tau [5]: neither J14 nor J03 decreased; total tau [5]: neither J14 nor J03 decreased; novel location assay / preference (J20 mice [6]; [8]): performed well; novel object assay (J20 mice [6]; [8]): performed well; sAPPα (J20 mice [6]; oral, FIG. 13A): increased slightly; sAPPβ (J20 mice [6]; oral, FIG. 13B): unchanged; sAPPα/sAPPβ ratio (J20 mice [6]; oral, FIG. 13C): slightly increased; Aβ1-40 (J20 mice [6]; oral, FIG. 14A): unchanged; Aβ1-42 (J20 mice [6]; oral, FIG. 14B): unchanged; Aβ1-40/Aβ1-42 ratio (J20 mice [6]; oral, FIG. 14C): unchanged; p-tau (J20 mice [6]; oral, decrease reached statistical significance, FIG. 16): decreased
